Measured values from paper PMC9652805, “Design, synthesis and evaluation of novel 1,2,4-triazole derivatives as promising anticancer agents” (BMC Chemistry, 2022).

Columns and labels:
[1] = test system: Hela cells (human cervical cancer cell line); test: MTT cytotoxicity assay, Hela; assay type: cell-based; settings: 72 h, mean ± SEM
Method: (§1) Cell cultures were obtained from the human lung cancer cell line (A549), human cervical cancer cell line (Hela), human breast cancer cell line (MCF-7) and Normal cells isolated from human lung tissue (MRC-5) taken from the National Cell Bank of Iran (NCBI, Pasteur Institute, Tehran, Iran). All cells were cultured in RPMI-1640 medium supplemented with 10% FBS, antibiotics (penicillin 100 U/mL, streptomycin 100 µg/mL), at 37 °C in a humidified atmosphere containing 5% CO2.
(§2) Cytotoxic activities of all the synthesized compounds were assessed by standard 3-(4,5-dimethylthiazol-yl)-2,5-diphenyl-tetrazolium bromide (MTT) assay. The assay was performed according to a known protocol. The cells were seeded and plated in 96-well microplates at a density of 1 × 10^4 cells per well in 180 μL complete culture media. After 24 h incubation, the cells were treated with […] of different concentrations of synthesized compounds ranging from 1 × 10^–4 to 1 × 10^–7 M at identical conditions in triplicates. After 72 h, media were replaced with 150 μL media containing 0.5 mg/mL of MTT solution [57]. The plates were incubated at 37 °C for additional four hours. Then, media containing MTT were discarded and 150 μL dimethylsulfoxide (DMSO, > 99%) was added to each well to dissolve the formazan crystals.

[2] = test system: MCF-7 cells (human breast cancer cell line); test: MTT cytotoxicity assay, MCF-7; assay type: cell-based; settings: mean ± SEM
Method: as §1, §2

[3] = test system: MRC-5 cells (normal cells from human lung tissue); test: MTT cytotoxicity assay, MRC-5 normal cell line (safety); assay type: cell-based; settings: mean ± SEM
Method: as §1, §2

[4] = test system: A549 cells (human lung cancer cell line); test: MTT cytotoxicity assay, A549; assay type: cell-based; settings: mean ± SEM
Method: as §1, §2

Structure (SMILES)	IC50 ([1]; Homo sapiens, HeLa)	melting point	IC50 ([2]; Homo sapiens, MCF7, 72 h)	IC50 ([3]; Homo sapiens, MRC5, 72 h)	IC50 ([4]; Homo sapiens, A549, 72 h)	IC50 [1]	IC50 ([2]; 72 h)	IC50 ([3]; 72 h)	IC50 ([4]; 72 h)
O=C(c1ccccc1)C(c1ccccc1)C(C(=O)c1ccc(F)cc1)n1cncn1 (stereo not shown) [10 g, 1-(4-fluorophenyl)-3,4-diphenyl-2-(1H-1,2,4-triazol-1-yl) butane-1,4-dione]	128 ± 6.1 µM	154 to 157 °C	93 ± 3.1 µM	257 ± 4.3 µM	150 ± 4.9 µM	–	–	–	–
O=C(c1ccccc1)C(c1ccccc1)C(C(=O)c1ccc(Cl)cc1)n1cncn1 (stereo not shown) [10 h, 1-(4-chlorophenyl)-3,4-diphenyl-2-(1H-1,2,4-triazol-1-yl) butane-1,4-dione]	172 ± 7.1 µM	174 to 176 °C	89 ± 5.2 µM	249 ± 5.8 µM	112 ± 10.8 µM	–	–	–	–
O=C(c1ccccc1)C(c1ccccc1)C(C(=O)c1ccc(Cl)cc1Cl)n1cncn1 (stereo not shown) [10 k, 1-(2,4-dichlorophenyl)-3,4-diphenyl-2-(1H-1,2,4-triazol-1-yl) butane-1,4-dione]	121 ± 6.8 µM	178 to 181 °C	44.1 ± 7.6 µM	148 ± 6.1 µM	102 ± 5.2 µM	–	–	–	–
N.N.[Cl][Pt][Cl] [Cis platin, reference compound]	–	–	–	–	–	12.3 ± 3.3 µM	36.5 ± 1.9 µM	45.2 ± 2.5 µM	14.8 ± 0.27 µM
O=C(c1ccccc1)C(Cc1ccccc1)n1cncn1 (stereo not shown) [Compound 7a, 1,3-diphenyl-2-(1H-1,2,4-triazol-1-yl) propan-1-one]	92.4 ± 7.3 µM	145 to 148 °C	154 ± 5.8 µM	> 300 µM	150 ± 5.3 µM	–	–	–	–
O=C(c1ccc(Cl)cc1Cl)C(Cc1ccccc1)n1cncn1 (stereo not shown) [Compound 7b, 1-(2,4-dichlorophenyl)-3-phenyl-2-(1H-1,2,4-triazol-1-yl) propan-1-one]	7.9 ± 3.1 µM	121 to 123 °C	23.4 ± 2.6 µM	72.6 ± 3.4 µM	75.8 ± 4.6 µM	–	–	–	–
O=C(c1ccc(Cl)cc1)C(C(c1ccccc1)c1ccccc1)n1cncn1 (stereo not shown) [Compound 7c, 1-(4-chlorophenyl)-3,3-diphenyl-2-(1H-1,2,4-triazol-1-yl) propan-1-one]	81.7 ± 6.3 µM	140 to 142 °C	60 ± 4.9 µM	201 ± 9.5 µM	177 ± 5.9 µM	–	–	–	–
O=C(c1ccc(Br)cc1)C(C(c1ccccc1)c1ccccc1)n1cncn1 (stereo not shown) [Compound 7d, 1-(4-bromophenyl)-3,3-diphenyl-2-(1H-1,2,4-triazol-1-yl) propan-1-one]	< 12 µM	110 to 113 °C	9.8 ± 0.9 µM	35.6 ± 2.7 µM	43.4 ± 4.5 µM	12.1 ± 3.6 µM	–	–	–
O=C(c1ccc(Cl)cc1Cl)C(C(c1ccccc1)c1ccccc1)n1cncn1 (stereo not shown) [Compound 7e, 1-(2,4-dichlorophenyl)-3,3-diphenyl-2-(1H-1,2,4-triazol-1-yl) propan-1-one]	–	118 to 121 °C	4.7 ± 1.4 µM	27.8 ± 3.7 µM	9.4 ± 1.8 µM	–	–	–	–
c1ccc(CC(Cc2ccccc2)n2cncn2)cc1 [Compound 8a, 1-(1,3-diphenylpropan-2-yl)-1H-1,2,4-triazole]	142 ± 2.1 µM	81 to 83 °C	158 ± 3.5 µM	279.1 ± 2.5 µM	127 ± 4.9 µM	–	–	–	–
Clc1ccc(CC(C(c2ccccc2)c2ccccc2)n2cncn2)cc1 (stereo not shown) [Compound 8b, 1-(3-(4-chlorophenyl)-1,1-diphenylpropan-2-yl)-1H-1,2,4-triazole]	198 ± 5.5 µM	93 to 96 °C	178 ± 2.5 µM	279 ± 2.8 µM	124 ± 3.4 µM	–	–	–	–
Brc1ccc(CC(C(c2ccccc2)c2ccccc2)n2cncn2)cc1 (stereo not shown) [Compound 8c, 1-(3-(4-bromophenyl)-1,1-diphenylpropan-2-yl)-1H-1,2,4-triazole]	79.1 ± 2.5 µM	88 to 91 °C	52.8 ± 7.4 µM	104 ± 7.3 µM	104 ± 7.3 µM	–	–	–	–
O=C(CC(C(=O)c1ccccc1)n1cncn1)c1ccccc1 (stereo not shown) [Compound 10a, 4-diphenyl-2-(1H-1,2,4-triazol-1-yl) butane-1,4-dione]	–	115 to 118 °C	6.43 µM	21.7 ± 1.5 µM	21.1 ± 4.2 µM	–	6.4 ± 1.7 µM	–	–
O=C(CC(C(=O)c1ccc(Cl)cc1)n1cncn1)c1ccccc1 (stereo not shown) [Compound 10b, 1-(4-chlorophenyl)-4-phenyl-2-(1H-1,2,4-triazol-1-yl) butane-1,4-dione]	48.3 ± 4.1 µM	131 to 133 °C	62.6 ± 2.5 µM	259 ± 8.3 µM	110 ± 1.3 µM	–	–	–	–
O=C(CC(C(=O)c1ccc(Br)cc1)n1cncn1)c1ccccc1 (stereo not shown) [Compound 10c, 1-(4-bromophenyl)-4-phenyl-2-(1H-1,2,4-triazol-1-yl) butane-1,4-dione]	32.4 ± 6.9 µM	149 to 151 °C	17.3 ± 5.4 µM	57.8 ± 1.7 µM	104 ± 1.3 µM	–	–	–	–
O=C(CC(C(=O)c1ccc(Br)cc1)n1cncn1)c1ccc(Cl)cc1 (stereo not shown) [Compound 10d, 1-(4-bromophenyl)-4-(4-chlorophenyl)-2-(1H-1,2,4-triazol-1-yl) butane-1,4-dione]	< 12 µM	162 to 165 °C	10.2 ± 2.1 µM	42.8 ± 2.1 µM	16.5 ± 2.6 µM	9.8 ± 1.7 µM	–	–	–
O=C(CC(C(=O)c1ccc(Cl)cc1Cl)n1cncn1)c1ccccc1 (stereo not shown) [Compound 10e, 1-(2,4-dichlorophenyl)-4-phenyl-2-(1H-1,2,4-triazol-1-yl) butane-1,4-dione]	31.6 ± 4.2 µM	153 to 156 °C	45.4 ± 6.5 µM	104 ± 7.3 µM	104 ± 5.9 µM	–	–	–	–
O=C(c1ccccc1)C(c1ccccc1)C(C(=O)c1ccccc1)n1cncn1 (stereo not shown) [Compound 10f, 4-triphenyl-3-(1H-1,2,4-triazol-1-yl) butane-1,4-dione]	82.7 ± 5.8 µM	185 to 188 °C	134 ± 4.5 µM	289 ± 10.2 µM	114 ± 7.6 µM	–	–	–	–
O=C(c1ccccc1)C(c1ccccc1)C(C(=O)c1ccc(Br)cc1)n1cncn1 (stereo not shown) [Compound 10i, 1-(4-bromophenyl)-3,4-diphenyl-2-(1H-1,2,4-triazol-1-yl) butane-1,4-dione]	59.3 ± 2.7 µM	168 to 171 °C	72.2 ± 6.5 µM	218 ± 3.2 µM	135 ± 5.3 µM	–	–	–	–
O=C(c1ccccc1)C(c1ccccc1)C(C(=O)c1ccc(F)cc1F)n1cncn1 (stereo not shown) [Compound 10j, 1-(2,4-difluorophenyl)-3,4-diphenyl-2-(1H-1,2,4-triazol-1-yl) butane-1,4-dione]	12.3 ± 1.9 µM	114 to 117 °C	45.4 ± 3.2 µM	101 ± 1.3 µM	101 ± 1.8 µM	–	–	–	–
